Values of other authors as cited in paper PMC2225439, “Amyloid as a Depot for the Formulation of Long-Acting Drugs” (PLoS Biology, 2008).
Where a SMILES comes first, the peptide text is derived from it. [ ]: non-standard residue; d: D form. The star is where a group is joined. dPhe(4-NHCONH2) = NC(=O)Nc1ccc(C[C@@H](N)C(=O)O)cc1; Dihydroorotyl(S) = O=C1C[C@@H](C(=O)*)NC(=O)N1; dPhe(4-Cl) = N[C@H](Cc1ccc(Cl)cc1)C(=O)O; Phe(4-NH2) = Nc1ccc(C[C@H](N)C(=O)O)cc1; d2Nal = N[C@H](Cc1ccc2ccccc2c1)C(=O)O; Lys(iPr) = CC(C)NCCCC[C@H](N)C(=O)O; d3Pal = N[C@H](Cc1cccnc1)C(=O)O

Test system: histamine release
Conditions: cited from earlier work

CC(=O)N[C@H](Cc1ccc2ccccc2c1)C(=O)N[C@H](Cc1ccc(Cl)cc1)C(=O)N[C@H](Cc1cccnc1)C(=O)N[C@@H](CO)C(=O)N[C@@H](Cc1ccc(NC(=O)[C@@H]2CC(=O)NC(=O)N2)cc1)C(=O)N[C@H](Cc1ccc(NC(N)=O)cc1)C(=O)N[C@@H](CC(C)C)C(=O)N[C@@H](CCCCNC(C)C)C(=O)N1CCC[C@H]1C(=O)N[C@H](C)C(N)=O [L13, Ac-DNal-DCpa-DPal-Ser-Aph(LHor)-DAph(Cbm)-Leu-ILys-Pro-DAla-NH2] (Ac-[d2Nal][dPhe(4-Cl)][d3Pal]S[Phe(4-NH2)](Dihydroorotyl(S))[dPhe(4-NHCONH2)]L[Lys(iPr)]P[dA]-NH2)
safety margin with regard to histamine release: good safety margin
